Experimental data published in patent US12691086B2, “Methods of treating systemic sclerosis and idiopathic pulmonary fibrosis” (HORIZON THERAPEUTICS IRELAND DAC, priority 2022, dated 2026).

Tests used:
tight skin (Tsk-1) mice = experiment: Tight skin (Tsk-1) mice model of skin fibrosis; assay type: in vivo, mouse; settings: 30 mg/kg/day
Description: Two models of skin fibrosis were used to evaluate the effect of Compound I in comparison with imatinib mesylate, used as a reference.

renal failure = experiment: Models of hypertension-induced or nephrotoxicity-induced renal failure; settings: in vivo
Description: All these pathological events can be observed in SSc patients at different levels and further support the use of Compound I in these patients.

thrombosis = experiment: Model of thrombosis in mouse; assay type: in vivo; settings: one model in mouse
[1] = system: patients with early dcSSc; experiment: 8-week double-blind, placebo-controlled study with 16-week open-label extension in dcSSc; assay type: in vivo, human
Description: The primary end point was safety during the double-blind phase of the trial. Exploratory end points included the identification of an LPA-induced gene signature in patients' skin.
Seventeen of 32 patients were randomly assigned to receive placebo and 15 to receive Compound I. Thirty patients participated in the open-label extension study. […] At week 8, the reduction in MRSS was numerically greater in the Compound I group than in the placebo group (mean±SD change −3.57±4.18 versus −2.76±4.85; treatment effect −1.2 [95% confidence interval −4.37, 2.02]).

[2] = Single-dose PK under fasted conditions in healthy adult subjects; assay type: in vivo, human; settings: for AUC(0-inf) / AUC(0-t) / Cmax / Tmax / half-life: human, plasma, oral
Procedure: The PK of Compound I and food effect were evaluated in an open-label study in healthy volunteers to inform the dose and dosing condition of the tablet formulations used in the clinical studies. Dose proportionality and food effect were evaluated using a 2-way, 2-period crossover design in two cohorts:150 mg and 300 mg single dose under fasting condition in Cohort 1 and 450 mg single dose under fasting and high-fat, high calorie meal condition in Cohort 2. Multiple-dose PK was evaluated using a 2-period, fixed sequence crossover design. Subjects received Compound I twice a day (BID) of 300 mg (Cohort 3) or 450 mg (Cohort 4) administered with low-fat meals in Period 1 and with high-fat meals in Period 2.
PK sample collections: For cohort 1 and 2, blood samples were collected at predose, 0.5, 1, 2, 3, 4, 6, 8, 12, 24, 36, 48, 72, 96 and 120 h post dose. For cohort 3 and 4, blood samples were collected at predose, 0.5, 1, 2, 4, 5, 12 hrs after the first dose on Day 1. After the last dose on Day 5, PK samples were taken at predose, 0.5, 1, 2, 4, 6, 12, 24, 36, 60, 84, 108 hr in Period 1 and predose, 0.5, 1, 2, 4, 6, 12 hours post last dose in Period 2.
Plasma concentrations of Compound I were determined using a validated high performance liquid chromatography-tandem mass spectrometry (HPLC MS/MS) method. The analytical range of Compound I were 250-50,000 ng/mL (high range) and […] (low range). Dose-proportionality of pharmacokinetic parameters were examined by analysis of variance (ANOVA) where the AUC0-last, AUC0-inf, and Cmax parameters were dose normalized. 90% confidence intervals (CIs) were derived by exponentiation of the CIs obtained for the difference between the treatment LSMs (Least square means). Dose proportionality was established if the 90% CI for the ratio of the geometric means for the dose-normalized parameters lay within the limits of (0.7, 1.43).

[3] = molecular target: T1, organic anion transporter 1 (OAT1) (Homo sapiens, UniProt Q4U2R8); experiment: In vitro inhibition of organic anion transporter 1; assay type: in vitro ADME
T1 sequence (Q4U2R8 1-563): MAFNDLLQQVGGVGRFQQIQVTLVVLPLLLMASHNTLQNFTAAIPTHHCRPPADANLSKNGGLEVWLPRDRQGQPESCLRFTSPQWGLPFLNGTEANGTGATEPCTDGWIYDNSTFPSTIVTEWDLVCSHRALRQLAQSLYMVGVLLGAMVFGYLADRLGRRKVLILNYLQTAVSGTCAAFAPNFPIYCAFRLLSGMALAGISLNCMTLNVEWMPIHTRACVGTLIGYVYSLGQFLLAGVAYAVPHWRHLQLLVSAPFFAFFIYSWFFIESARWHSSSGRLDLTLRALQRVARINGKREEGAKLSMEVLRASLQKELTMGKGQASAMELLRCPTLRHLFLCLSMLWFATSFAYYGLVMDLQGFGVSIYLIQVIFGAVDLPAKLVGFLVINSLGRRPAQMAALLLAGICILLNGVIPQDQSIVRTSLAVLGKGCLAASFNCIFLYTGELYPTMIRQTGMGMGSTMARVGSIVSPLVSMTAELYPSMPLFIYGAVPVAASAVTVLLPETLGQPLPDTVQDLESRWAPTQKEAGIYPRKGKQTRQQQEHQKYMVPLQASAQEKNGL

[4] = molecular target: T2, organic anion transporter 3 (OAT3) (Homo sapiens, UniProt Q8TCC7); experiment: In vitro inhibition of organic anion transporter 3; assay type: in vitro ADME
T2 sequence (Q8TCC7 1-542): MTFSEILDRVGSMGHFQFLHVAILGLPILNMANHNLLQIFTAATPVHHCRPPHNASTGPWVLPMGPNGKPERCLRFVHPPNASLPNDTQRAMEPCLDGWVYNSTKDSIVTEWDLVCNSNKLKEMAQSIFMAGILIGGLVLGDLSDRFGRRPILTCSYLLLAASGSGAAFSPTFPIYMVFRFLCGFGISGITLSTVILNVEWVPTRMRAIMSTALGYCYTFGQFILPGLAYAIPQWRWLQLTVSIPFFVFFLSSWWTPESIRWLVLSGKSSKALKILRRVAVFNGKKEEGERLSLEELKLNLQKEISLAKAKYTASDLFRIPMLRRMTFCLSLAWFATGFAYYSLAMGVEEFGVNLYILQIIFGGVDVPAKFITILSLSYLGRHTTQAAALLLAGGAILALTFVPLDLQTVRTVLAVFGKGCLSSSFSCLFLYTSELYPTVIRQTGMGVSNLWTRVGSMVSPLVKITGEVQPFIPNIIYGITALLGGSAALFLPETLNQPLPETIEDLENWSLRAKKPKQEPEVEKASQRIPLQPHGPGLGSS

[5] = 24-weeks of continuous treatment
[6] = Subjects switched from placebo to Compound I, 16-week open label extension

In the case of `COc1ccc(C(=O)NC2(C(=O)O)Cc3ccccc3C2)cc1OCCc1cccc(C)c1` [Compound I, 2-(4-methoxy-3-(3-methylphenethoxy)benzamido)-2,3-dihydro-1H-indene-2-carboxylic acid], the “progression of skin fibrosis” value (tight skin (Tsk-1) mice) is reported as “inhibit the progression of skin fibrosis at a similar level than imatinib”, the kidney function (renal failure) is reported as “improved kidney function” and the antithrombotic activity (thrombosis) is reported as “demonstrated antithrombotic activity”. For the same compound, the “Median Decrease in mRSS” value [1, 5] was −7.5, the “Responder Rate” value [1, 5] was 78.6% and the “Median Decrease in mRSS” value [1, 6] was −7.0. The “Responder Rate” value [1, 6] was 69.2%, the “most frequent adverse events” value ([1]; blinded phase) was “headache, diarrhea, nausea, and falling” and the “MRSS during the study” value ([1]; in vivo) was “improved during the study although the difference was not significant”. For the same compound, the “disease biomarkers (COMP and TSP1)” value ([1]; initial Compound I group, treatment up to 24 weeks) was “numerical improvement versus baseline”, the “LPA-related genes, biomarker analysis of skin biopsies” value ([1]; open label extension) was “reductions in LPA-related genes” and the safety profile ([1]; open-label extension) was “acceptable”. The tolerability ([1]; patients with dcSSc) was “well tolerated”, the “reduction of LPA-related genes in skin samples versus placebo group” value ([1]; week 8) was “greater reduction” and the “treatment effect on MRSS versus placebo” value ([1]; week 8) was −1.2. For the same compound, the “change in MRSS, mean±SD” value ([1]; week 8, double-blind phase) was −3.57±4.18, the “HAQ-DI (functional disability)” value ([1]; week 24) was “clinically significant improvement” and the “dose proportionality of Cmax and AUC” value ([2]; 150 to 450 mg, ANOVA) was “less than dose-proportional”. It also gave an AUC(0-inf) ([2]; 150 mg single dose) of 85.2 µg·h/mL, an AUC(0-t) ([2]; 150 mg single dose) of 83.8 µg·h/mL and a Cmax ([2]; 150 mg single dose) of 11100 ng/mL. For the same compound, the Tmax ([2]; 150 mg single dose) was 3.5 h, the half-life ([2]; 150 mg single dose) was 21.8 h and the AUC(0-inf) ([2]; 300 mg single dose) was 120 µg·h/mL. The AUC(0-t) ([2]; 300 mg single dose) was 118 µg·h/mL, the Cmax ([2]; 300 mg single dose) was 14500 ng/mL and the Tmax ([2]; 300 mg single dose) was 4 h. It also gave a half-life ([2]; 300 mg single dose) of 22.4 h, an AUC(0-inf) ([2]; 450 mg single dose) of 126 µg·h/mL and an AUC(0-t) ([2]; 450 mg single dose) of 125 µg·h/mL. For the same compound, the Cmax ([2]; 450 mg single dose) was 15200 ng/mL, the Tmax ([2]; 450 mg single dose) was 3 h and the half-life ([2]; 450 mg single dose) was 18.3 h. The “inhibition of OAT1” value [3] was “inhibitor” and the “inhibition of OAT3” value [4] was “inhibitor”.
